Assay results as given in patent US11085056B2, “Transfection complexes and methods of using the same” (MOLECULAR TRANSFER, INC., priority 2015, dated 2021).
“And” between values parts separate entries of the source, which are not always exact repeats. Identical values can stand only once.

Columns and labels:
C2C12 Cells = assay: Transfection of C2C12 cells with DOTMA/DOPE/peptide and eGFP plasmid, fluorescent plate reader; format: cell-based, mouse; details: DOTMA/DOPE 1:1 plus peptide with RRRRRRRRRRRR (SEQ ID NO: 109) at n terminus; EF1Alpha eGFP plasmid; 0.02 mL complex; 42 hours
Experimental: (§1) Cells were plated to so that on the day of transfection the cells were 60-70% confluent in 96 well tissue culture plates. A DOMTA/DOPE Lipid solution (1:1 molar ratio) at 2 mg/mL in water were mixed with an equal volume of surface ligand peptides that had the nucleic acid binding moiety RRRRRRRRRRRR (SEQ ID NO: 109) covalently linked to the n terminus of each peptide during peptide synthesis. Peptides were at 2 mg/mL in water. The DOTMA/DOPE and the surface ligand peptide solution the transfection reagent was diluted 1 to 1 (v/v) in water. DOMTA/DOPE/PEPTIDE solutions were added to 0.1 mL of a plasmid DNA solution (EF1Alpha eGFP plasmid) at 5 μg/mL in OptiMEM. Lipofectamine 2000 was obtained from Life Technologies.
(§2) All solutions were at room temperature. A volume of 0.2 mL of a 5 μg/mL solution of DNA was aliquoted into each well of a non-tissue cultured treated plate. 4.0 μL of transfection reagents were added to DNA solutions respectively. The transfection reagent and DNA solution was mixed by pipetting up and down twice. Transfection complexes were formed for 10 minutes. After 10 minutes, 0.01 or 0.02 mL of the transfection complex was added to cells. HuVEC, HeLa, human adult keratinocytes, human primary adult fibroblast, and rat cortical neurons all respectively received 0.01 mL of the tramsfectopm complex. Human skeletal muscle cells, mouse C2C12 cells, Jurkat, and THP-1 cells received 0.02 mL of the transfection complex. Cells were incubated for 42 hours at 37° C. at 5% CO2. Plates were read on a fluorescent plate reader. Cells were also examined visually under a microscope to assess the extent of transfection (in terms of the percent of cells transfected) with a fluorescent microscope. Other modes of analysis, for example quantification with B-galactosidase or luciferase reports plasmids can also be used. […] Surface ligand that caused increase expression of GFP over the lipid DOTMA with no surface ligand were considered to enhance transfection or had higher % cells transfected were considered to enhance transfection. Peptides that gave greater than 2 fold enhancement are noted in bold and could be further optimized by adding different transfection enhancers or could be used with different cationic lipids or polymers.

HeLa Cells [1] = assay: Transfection of HeLa cells with DOTMA/DOPE/peptide and eGFP plasmid, fluorescent plate reader; format: cell-based; details: DOTMA/DOPE 1:1 plus peptide with RRRRRRRRRRRR (SEQ ID NO: 109) at n terminus; EF1Alpha eGFP plasmid; 0.01 mL complex; 42 hours
Experimental: as §1, §2

NL-1 iPS Cells = assay: Transfection of NL-1 iPS cells with DOTMA/DOPE/peptide and eGFP plasmid, fluorescent plate reader; format: cell-based; details: DOTMA/DOPE 1:1 plus peptide with RRRRRRRRRRRR (SEQ ID NO: 109) at n terminus; EF1Alpha eGFP plasmid; 42 hours
Experimental: as §1, §2

Human Fibroblast Cells = assay: Transfection of human fibroblast cells with DOTMA/DOPE/peptide and eGFP plasmid, fluorescent plate reader; format: cell-based; details: DOTMA/DOPE 1:1 plus peptide with RRRRRRRRRRRR (SEQ ID NO: 109) at n terminus; EF1Alpha eGFP plasmid; 0.01 mL complex; 42 hours
Experimental: as §1, §2

HuVec Cells = assay: Transfection of HuVec cells with DOTMA/DOPE/peptide and eGFP plasmid, fluorescent plate reader; format: cell-based; details: DOTMA/DOPE 1:1 plus peptide with RRRRRRRRRRRR (SEQ ID NO: 109) at n terminus; EF1Alpha eGFP plasmid; 0.01 mL complex; 42 hours
Experimental: as §1, §2

HeLa Cells [2] = assay: Transfection of HeLa cells with DOTMA/SEQ ID NO: 72/peptide compared with Lipofectamine 2000; format: cell-based; details: fusogenic peptide 0.1 mg/mL
Experimental: as §1, §2
The fusogenic peptide was added to the DOMTA/peptide formulation to achieve a final concentration of 0.1 mg/mL to see if transfection reagents were further enhanced by the addition of a fusogenic peptide and could provide higher transfection efficiency into HeLa cells and expression than the commercially available Lipofectamine 2000.

some examined cell types = assay: Transfection expression and % cells transfected over the no peptide control; format: cell-based; details: on some examined cell types
Experimental: as §1, §2

Jurkat Cells = assay: Transfection of Jurkat cells with DOTMA/DOPE/peptide and eGFP plasmid, fluorescent plate reader; format: cell-based; details: DOTMA/DOPE 1:1 plus peptide with RRRRRRRRRRRR (SEQ ID NO: 109) at n terminus; EF1Alpha eGFP plasmid; 0.02 mL complex; 42 hours
Experimental: as §1, §2

[3] = 0.1 μL of DOTMA/SEQ ID NO: 72/Peptide in well of a 96 well plate
[4] = 0.2 μL of DOTMA/SEQ ID NO: 72/Peptide in well of a 96 well plate
[5] = 0.3 μL of DOTMA/SEQ ID NO: 72/Peptide in well of a 96 well plate
[6] = 0.4 μL of DOTMA/SEQ ID NO: 72/Peptide in well of a 96 well plate

Substance | RF (Relative Fluorescence) of Transfection of C2C12 Cells (C2C12 Cells) | RF (Relative Fluorescence) of Transfection of HeLa Cells (HeLa Cells [1]) | RF (Relative Fluorescence) of Transfection of NL-1 iPS Cells (NL-1 iPS Cells) | RF (Relative Fluorescence) of Transfection of Human Fibroblast Cells (Human Fibroblast Cells) | RF (Relative Fluorescence) of Transfection of HuVec Cells (HuVec Cells) | RF (Relative Fluorescence), DOTMA/SEQ ID NO: 72/Peptide, HeLa Cells (HeLa Cells [2]; [3]) | RF (Relative Fluorescence), DOTMA/SEQ ID NO: 72/Peptide, HeLa Cells (HeLa Cells [2]; [4]) | RF (Relative Fluorescence), DOTMA/SEQ ID NO: 72/Peptide, HeLa Cells (HeLa Cells [2]; [5]) | RF (Relative Fluorescence), DOTMA/SEQ ID NO: 72/Peptide, HeLa Cells (HeLa Cells [2]; [6]) | transfection expression and the % cells transfected over the no peptide control (some examined cell types) | RF (Relative Fluorescence) of Transfection of Jurkat Cells (Jurkat Cells)
502 (RNIAEIIKDI; Peptidic transfection agent) [compound 502] | 2589 |  |  |  |  |  |  |  |  |  | 
107 (RRRRRRRR; Peptidic transfection agent) [compound 107] |  | 75 | 1441 |  |  |  |  |  |  |  | 
236 (KNNQKSEPLIGRKKT; Peptidic transfection agent) [compound 236] |  | 7202 and 5042 | 43542 and 22256 | 3630 and 3000 | 14418 | 5993 | 8846 | 8492 | 7316 | increased | 
226 (ANGQTPIQRYIK; Peptidic transfection agent) [compound 226] | 1664 | 7340 | 24920 | 3431 | 20864 |  |  |  |  | increased | 12976
361 (YIGSR; Peptidic transfection agent) [compound 361] | 585 | 3698 | 9363 | 7014 | 6017 |  |  |  |  | increased | 7006
359 (KAFDITYVRLKF; Peptidic transfection agent) [compound 359] | 5693 | 3136 | 5548 | 3206 | 3024 |  |  |  |  | increased | 1880
235 (KARSFNVNQLLQD; Peptidic transfection agent) [compound 235] |  |  |  |  | 26940 |  |  |  |  |  | 
393 (LGTIPG; Peptidic transfection agent) [compound 393] |  |  |  |  |  |  |  |  |  | increased | 
234 (YEKPGSPPREVVPRPRPGV; Peptidic transfection agent) [compound 234] | 681 | 3867 | 14410 | 4145 | 13956 |  |  |  |  |  | 5441
229 (PPFLMLLKGSTR; Peptidic transfection agent) [compound 229] | 1164 | 8816 | 13491 | 6811 | 5452 |  |  |  |  | increased | 8079
501 (DLGTAGSCLRRFSTM; Peptidic transfection agent) [compound 501] | 5913 |  |  | 9473 |  | 23571 | 23993 | 20410 | 14749 | increased | 12350
205 (AASIKVAVSADR; Peptidic transfection agent) [compound 205] | 2102 | 26368 | 13140 | 8550 | 8309 |  |  |  |  | increased | 2298
335 (TVFSVDQDNMLE; Peptidic transfection agent) [compound 335] | 4689 | 26954 | 14424 | 8534 | 6350 | 12866 | 12458 | 11547 | 9753 |  | 4567
349 (RNIAEIIKDI; Peptidic transfection agent) [compound 349] |  | 4433 | 33103 | 8810 | 22907 |  |  |  |  | increased | 23167
383 (TAG; Peptidic transfection agent) [compound 383] | 1876 | 8012 | 21983 | 5896 | 20267 |  |  |  |  |  | 14910
224 (KPDVRSYTITG; Peptidic transfection agent) [compound 224] | 1469 | 5559 | 25209 | 5995 | 15945 |  |  |  |  |  | 13170
363 (LAGSCLARFSTM; Peptidic transfection agent) [compound 363] | 1080 | 2590 | 4189 | 3008 | 1383 |  |  |  |  |  | 2432
371 (GPAGKDGEAGAQG; Peptidic transfection agent) [compound 371] | 983 | 5180 | 17587 | 4584 | 10669 |  |  |  |  |  | 6093
